pEC50: −log10 of the molar value. In brackets after ≈: the same amount, converted by molar mass.
Columns and labels:
E. coli K12 PBP3 = target: T1, E. coli K12 PBP3 (Escherichia coli, UniProt P0AD68); assay: biochemical; format: binding
T1 construct: made in house
Summary of the method: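 Fluorescence polarization (ex 490/em 520 nm) competition of inhibitors against Bocillin-FL at 0.1 μM, read up to 60 min. Final PBP levels: E. coli PBP3 1.5 μM; A. baumannii PBP2 2.5 μM, PBP3 0.2 μM in Tris pH 8.0/NaCl/glycerol/Tween 20; N. gonorrhoeae PBP2 […] in Hepes pH 8.0/NaCl/glycerol. EC50 = concentration halving PBP-bound Bocillin-FL.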

P. aeruginosa PBP3 = target: T2, P. aeruginosa PBP3 (Pseudomonas aeruginosa, UniProt G3XD46); assay: Bocillin-FL fluorescence polarization competition binding assay, P. aeruginosa PBP3; conditions: fluorescence polarization competition binding assay using Bocillin-FL
T2 construct: made in house
T2 sequence (G3XD46 whole entry): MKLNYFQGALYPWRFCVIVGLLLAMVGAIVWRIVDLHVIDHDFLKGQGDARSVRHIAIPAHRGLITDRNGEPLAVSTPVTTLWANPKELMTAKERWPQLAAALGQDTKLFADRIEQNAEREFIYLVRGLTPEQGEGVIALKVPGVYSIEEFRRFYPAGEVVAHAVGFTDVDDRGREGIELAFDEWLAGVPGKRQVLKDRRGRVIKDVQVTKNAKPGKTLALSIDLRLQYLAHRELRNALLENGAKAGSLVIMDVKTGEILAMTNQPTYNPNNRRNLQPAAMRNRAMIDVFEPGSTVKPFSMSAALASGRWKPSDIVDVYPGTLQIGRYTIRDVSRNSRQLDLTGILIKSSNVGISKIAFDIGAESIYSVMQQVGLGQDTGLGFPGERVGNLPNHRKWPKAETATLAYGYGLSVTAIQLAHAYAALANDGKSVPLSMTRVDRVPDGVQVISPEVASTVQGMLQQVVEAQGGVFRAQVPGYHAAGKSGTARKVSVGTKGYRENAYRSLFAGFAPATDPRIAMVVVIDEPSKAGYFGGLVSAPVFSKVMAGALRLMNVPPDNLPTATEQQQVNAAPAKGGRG
Summary of the method: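 Binding of boronic acid inhibitors to purified Pseudomonas aeruginosa (PA01) PBP3 was measured by fluorescence polarization competition with Bocillin-FL, a fluorescent penicillin V. Reactions of 80 μl contained 0.75 μM PBP3 and 0.1 μM Bocillin-FL in 50 mM Hepes (pH 8.0), 300 mM NaCl and 5% (v/v) glycerol, in black 384-well plates. FP (Excitation 490 nm, Emission 520 nm) was read for up to 60 minutes. EC50 is the concentration that halves PBP-bound Bocillin-FL.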

[1] = system: N. gonorrhoeae ATCC 49226; assay: Liquid broth MIC in Fastidious broth; format: cell-based; conditions: Neisseria gonorrhoeae, ATCC49226; N. gonorrhoeae strain ATCC 49226; Fastidious broth; read-out: Minimum Inhibitory Concentration, N. gonorrhoeae ATCC 49226
Summary of the method: (§1)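 Colonies were swabbed from chocolate agar after 24 h growth and standardised by optical density at 600 nm. Compounds were serially diluted twofold in Fastidious broth, and bacteria added to give 5×10^5 CFU/mL. After about 24 h at 36 °C in 5% CO2, the lowest concentration allowing under 10% growth was taken as MIC.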

N. gonorrhoeae FA1090 = assay: Liquid broth MIC in Fastidious broth; format: cell-based; conditions: Neisseria gonorrhoeae; N. gonorrhoeae strain FA1090; Fastidious broth; read-out: Minimum Inhibitory Concentration, N. gonorrhoeae FA1090
Summary of the method: as §1

N. gonorrhoeae H041 = assay: Liquid broth MIC in Fastidious broth; format: cell-based; conditions: Neisseria gonorrhoeae, H041, read-out: Minimum Inhibitory Concentration, N. gonorrhoeae H041
Summary of the method: (§2)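 Broth microdilution against gonococcal strains expressing mosaic PBP2, starting inoculum 5×10^5 CFU/mL in Fastidious broth. Incubation runs ~24 h at 36 °C under 5% CO2, with MIC scored visually at <10% of full growth.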

N. gonorrhoeae WHO G = assay: Liquid broth MIC in Fastidious broth; format: cell-based; conditions: Neisseria gonorrhoeae; N. gonorrhoeae strain WHO G; Fastidious broth; read-out: Minimum Inhibitory Concentration, N. gonorrhoeae WHO G
Summary of the method: as §1

N. gonorrhoeae WHO K = assay: Liquid broth MIC in Fastidious broth; format: cell-based; conditions: Neisseria gonorrhoeae, read-out: Minimum Inhibitory Concentration, N. gonorrhoeae WHO K
Summary of the method: as §2

N. gonorrhoeae WHO L = assay: Liquid broth MIC in Fastidious broth; format: cell-based; conditions: Neisseria gonorrhoeae; N. gonorrhoeae strain WHO L; Fastidious broth; read-out: Minimum Inhibitory Concentration, N. gonorrhoeae WHO L
Summary of the method: as §1

N. gonorrhoeae WHO Q = assay: Liquid broth MIC in Fastidious broth; format: cell-based; conditions: Neisseria gonorrhoeae, read-out: Minimum Inhibitory Concentration, N. gonorrhoeae WHO Q
Summary of the method: as §2

N. gonorrhoeae WHO Z = assay: Liquid broth MIC in Fastidious broth; format: cell-based; conditions: Neisseria gonorrhoeae, read-out: Minimum Inhibitory Concentration, N. gonorrhoeae WHO Z
Summary of the method: as §2

T1 sequence (P0AD68 1-577): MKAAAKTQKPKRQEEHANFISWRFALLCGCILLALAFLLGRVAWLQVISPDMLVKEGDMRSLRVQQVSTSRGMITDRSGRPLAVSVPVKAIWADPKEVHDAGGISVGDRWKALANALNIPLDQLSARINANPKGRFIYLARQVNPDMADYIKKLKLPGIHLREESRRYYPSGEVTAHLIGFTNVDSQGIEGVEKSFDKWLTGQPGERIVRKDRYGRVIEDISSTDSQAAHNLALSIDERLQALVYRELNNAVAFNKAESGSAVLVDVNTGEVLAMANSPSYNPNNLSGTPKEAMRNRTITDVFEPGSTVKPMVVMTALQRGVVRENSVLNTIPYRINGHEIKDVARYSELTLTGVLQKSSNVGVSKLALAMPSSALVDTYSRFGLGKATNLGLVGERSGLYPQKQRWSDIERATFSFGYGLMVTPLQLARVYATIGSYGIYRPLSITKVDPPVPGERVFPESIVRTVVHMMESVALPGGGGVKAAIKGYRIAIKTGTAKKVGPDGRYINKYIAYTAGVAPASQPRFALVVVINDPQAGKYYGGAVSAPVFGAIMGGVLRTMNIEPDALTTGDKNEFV

Compound	pEC50 (E. coli K12 PBP3)	P. aeruginosa PBP3 Potency (P. aeruginosa PBP3)	MIC [1] [µg/mL]	MIC (N. gonorrhoeae FA1090) [µg/mL]	MIC (N. gonorrhoeae H041) [µg/mL]	MIC (N. gonorrhoeae WHO G) [µg/mL]	MIC (N. gonorrhoeae WHO K) [µg/mL]	MIC (N. gonorrhoeae WHO L) [µg/mL]	MIC (N. gonorrhoeae WHO Q) [µg/mL]	MIC (N. gonorrhoeae WHO Z) [µg/mL]
CCN1CCN(C(=O)N[C@H](C(=O)N[C@H]2Cc3cccc(C(=O)O)c3OB2O)c2ccc(C(=O)O)cc2)C(=O)C1=O (single isomer, unassigned) [Example 123]	> 4.52	D (D represents a potency <10 μM)	4 to 8 (≈ 7.24 to 14.5 µM)	0.25 to 0.5 (≈ 0.453 to 0.905 µM)	16 to 32 (≈ 29 to 57.9 µM)	1 to 2 (≈ 1.81 to 3.62 µM)	4 to 8 (≈ 7.24 to 14.5 µM)	16 to 32 (≈ 29 to 57.9 µM)	4 to 8 (≈ 7.24 to 14.5 µM)	1 to 2 (≈ 1.81 to 3.62 µM)
CCN1CCN(C(=O)N[C@@H](C(=O)N[C@H]2Cc3cccc(C(=O)O)c3OB2O)c2ccc(C(=O)O)cc2)C(=O)C1=O (single isomer, unassigned) [Example 124]	> 4.52	D (D represents a potency <10 μM)	1 to 2 (≈ 1.81 to 3.62 µM)	< 0.125	4 to 8 (≈ 7.24 to 14.5 µM)	0.25 to 0.5 (≈ 0.453 to 0.905 µM)	4 to 8 (≈ 7.24 to 14.5 µM)	4 to 8 (≈ 7.24 to 14.5 µM)	1 to 2 (≈ 1.81 to 3.62 µM)	1 to 2 (≈ 1.81 to 3.62 µM)
CCN1CCN(C(=O)N[C@H](C(=O)N[C@H]2Cc3ccc(F)c(C(=O)O)c3OB2O)c2c(F)cc(O)c(O)c2Cl)C(=O)C1=O (single isomer, unassigned) [Example 125]	< 3.30	A (A represents a potency of >500 μM)	> 64	> 64	> 64	> 64	> 64	> 64	> 64	> 64
O=C(O)c1cccc2c1OB(O)[C@@H](NC(=O)[C@H](NC(=O)N1CCN(CCF)C(=O)C1=O)c1c(F)cc(O)cc1F)C2 (single isomer, unassigned) [Example 126]	> 4.52	D (D represents a potency <10 μM)	4 to 8 (≈ 6.92 to 13.8 µM)	< 0.125	16 to 32 (≈ 27.7 to 55.3 µM)	1 to 2 (≈ 1.73 to 3.46 µM)	16 to 32 (≈ 27.7 to 55.3 µM)	16 to 32 (≈ 27.7 to 55.3 µM)	4 to 8 (≈ 6.92 to 13.8 µM)	4 to 8 (≈ 6.92 to 13.8 µM)
NCCN1CCN(C(=O)N[C@@H](C(=O)N[C@H]2Cc3ccc(F)c(C(=O)O)c3OB2O)c2c(F)cc(O)cc2F)C(=O)C1=O (single isomer, unassigned) [Example 127]	> 4.52	D (D represents a potency <10 μM)	16 to 32 (≈ 27 to 53.9 µM)	4 to 8 (≈ 6.74 to 13.5 µM)	> 64	16 to 32 (≈ 27 to 53.9 µM)	> 64	> 64	> 64	> 64
NCCN1CCN(C(=O)N[C@H](C(=O)N[C@H]2Cc3ccc(F)c(C(=O)O)c3OB2O)c2c(F)cc(O)cc2F)C(=O)C1=O (single isomer, unassigned) [Example 128]	3.30 to 4.52	C (C represents a potency between 10 and 30 μM)	> 64	16 to 32 (≈ 27 to 53.9 µM)	> 64	> 64	> 64	> 64	> 64	> 64
NCCN1CCN(C(=O)N[C@@H](C(=O)N[C@H]2Cc3cccc(C(=O)O)c3OB2O)c2cc(Cl)c(O)c(Cl)c2)C(=O)C1=O (single isomer, unassigned) [Example 166]	> 4.52	–	16 to 32 (≈ 26.3 to 52.6 µM)	0.25 to 0.5 (≈ 0.411 to 0.822 µM)	> 64	4 to 8 (≈ 6.58 to 13.2 µM)	> 64	> 64	16 to 32 (≈ 26.3 to 52.6 µM)	16 to 32 (≈ 26.3 to 52.6 µM)
CCN1CCN(C(=O)NC(C(=O)N[C@H]2Cc3cccc(C(=O)O)c3OB2O)c2c(F)cc(N)cc2F)C(=O)C1=O (stereo partly drawn) [Example 181, (3R)-3-(2-(4-amino-2,6-difluorophenyl)-2-(4-ethyl-2,3-dioxopiperazine-1-carboxamido)acetamido)-2-hydroxy-3,4-dihydro-2H-benzo[e][1,2]oxaborinine-8-carboxylic acid]	> 4.52	–	4 to 8 (≈ 7.15 to 14.3 µM)	0.25 to 0.5 (≈ 0.447 to 0.894 µM)	> 64	1 to 2 (≈ 1.79 to 3.58 µM)	16 to 32 (≈ 28.6 to 57.2 µM)	16 to 32 (≈ 28.6 to 57.2 µM)	16 to 32 (≈ 28.6 to 57.2 µM)	16 to 32 (≈ 28.6 to 57.2 µM)
